According to ChEMBL document CHEMBL1201862, “PubChem BioAssay data set” (2004):
Calls of active or inactive are those of the source.

Tests used:
[1] = molecular target: Cytochrome P450 2D6 (Homo sapiens, UniProt P10635);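 also: CYP2D6 member of a cytochrome P450 panel assay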
[2] = molecular target: T1, Cysteine protease ATG4B (Homo sapiens, UniProt Q9Y4P1); type: functional;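 also: Fluorescence-based dose-response confirmation assay measuring inhibition of ATG4B activity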
T1 sequence (Q9Y4P1 whole entry): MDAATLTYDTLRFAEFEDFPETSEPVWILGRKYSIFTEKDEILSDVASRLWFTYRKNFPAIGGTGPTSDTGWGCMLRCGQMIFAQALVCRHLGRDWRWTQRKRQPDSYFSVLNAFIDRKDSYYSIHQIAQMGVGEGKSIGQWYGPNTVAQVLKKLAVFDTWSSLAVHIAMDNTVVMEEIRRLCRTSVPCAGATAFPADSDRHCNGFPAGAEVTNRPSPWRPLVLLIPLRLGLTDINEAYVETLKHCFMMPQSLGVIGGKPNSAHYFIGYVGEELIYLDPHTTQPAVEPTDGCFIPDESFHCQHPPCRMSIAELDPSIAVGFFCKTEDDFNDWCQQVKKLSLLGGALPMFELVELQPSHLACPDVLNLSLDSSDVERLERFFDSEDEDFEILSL

[3] = molecular target: Cytochrome P450 2C9 (Homo sapiens, UniProt P11712)
Chain of Cytochrome P450 2C9 (P11712 whole entry): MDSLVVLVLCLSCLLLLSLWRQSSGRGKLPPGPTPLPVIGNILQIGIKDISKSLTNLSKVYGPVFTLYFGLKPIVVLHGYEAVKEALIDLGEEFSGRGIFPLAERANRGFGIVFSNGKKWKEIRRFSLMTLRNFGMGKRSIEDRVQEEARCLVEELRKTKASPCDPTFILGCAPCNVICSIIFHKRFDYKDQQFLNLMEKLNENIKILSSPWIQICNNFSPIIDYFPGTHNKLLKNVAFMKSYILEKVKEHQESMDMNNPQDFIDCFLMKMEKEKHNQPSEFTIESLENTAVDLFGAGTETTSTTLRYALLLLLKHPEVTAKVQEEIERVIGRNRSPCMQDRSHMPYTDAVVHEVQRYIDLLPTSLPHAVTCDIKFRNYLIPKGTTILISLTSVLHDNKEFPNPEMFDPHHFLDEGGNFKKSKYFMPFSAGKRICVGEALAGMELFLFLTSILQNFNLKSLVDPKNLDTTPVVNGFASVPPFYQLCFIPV

[4] = molecular target: Phospholipase A2 (Homo sapiens, UniProt P04054); type: functional;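 also: confirmatory dose-response counterscreen on phospholipase A2, testing hits that came from an ultra-high-throughput screen for ATG4B inhibitors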
Chain of Phospholipase A2 (P04054 whole entry): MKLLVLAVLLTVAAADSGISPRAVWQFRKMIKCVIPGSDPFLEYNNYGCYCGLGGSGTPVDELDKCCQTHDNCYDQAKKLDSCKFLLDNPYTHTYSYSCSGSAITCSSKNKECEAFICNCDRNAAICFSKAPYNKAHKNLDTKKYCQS

[5] = viability of PTEN-deleted HCT116 cells – cell-based, HCT116 PTEN knockout, dose response (AID 1047); type: functional;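 also: HCT116 colon tumor cells with PTEN knocked out; cells exposed to compound for 60 hours before readout; potency for loss of cell viability measured by luminescence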
[6] = microbe, parasite or virus in culture; type: functional; details: Mycobacterium tuberculosis
[7] = viability of HCT116 lacking mutant beta-catenin – cell-based, human colon tumor, dose response (AID 1045); type: functional;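 also: HCT116 colon tumor cells with beta catenin knocked out; cells exposed to compound for 60 hours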
[8] = molecular target: Paired box protein Pax-8 (Homo sapiens, UniProt Q06710); experiment: PAX8 transcriptional activity inhibition in RMG-I – RMG-I cells, luciferase, cherry-pick, dose response (AID 687027); type: functional, cell-based;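 also: luciferase reporter driven by Pax8 target thyroperoxidase promoter measured by SteadyGlo luminescence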
Chain of Paired box protein Pax-8 (Q06710 whole entry): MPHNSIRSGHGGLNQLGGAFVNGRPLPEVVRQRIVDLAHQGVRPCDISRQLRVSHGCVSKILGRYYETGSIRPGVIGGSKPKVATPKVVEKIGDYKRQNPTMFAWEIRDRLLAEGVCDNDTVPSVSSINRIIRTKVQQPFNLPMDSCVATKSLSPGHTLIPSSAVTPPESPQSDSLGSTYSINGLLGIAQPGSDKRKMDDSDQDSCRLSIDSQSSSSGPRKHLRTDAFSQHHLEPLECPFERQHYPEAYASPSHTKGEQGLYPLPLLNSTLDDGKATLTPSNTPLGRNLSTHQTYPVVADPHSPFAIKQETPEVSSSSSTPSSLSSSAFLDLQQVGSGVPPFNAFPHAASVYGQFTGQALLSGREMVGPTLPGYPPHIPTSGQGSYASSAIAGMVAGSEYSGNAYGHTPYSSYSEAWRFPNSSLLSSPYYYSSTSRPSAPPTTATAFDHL

[9] = loss of viability in HepG2 cells – cell-based, CellTiter-Glo, cherry-picked, cytotoxicity control for Shn3 inhibitor project, dose response (AID 624134); type: functional
[10] = reduction of Shn3 3'UTR-driven luciferase in osteoblasts – cell-based, Clone20 osteoblasts, firefly luciferase, cherry-picked, dose response (AID 624132); type: functional;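 also: firefly luciferase luminescence from reporter carrying the Shn3 3'UTR in osteoblasts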
[11] = non-specific 3'UTR reporter inhibition in Clone20-Shn3RL – cell-based, Renilla luciferase, cherry-picked, counter-screen for Shn3 inhibitor project, dose response (AID 624133); type: functional
[12] = system: Streptococcus; experiment: GAS UMAA2166 growth inhibition – luminescence, BacTiterGlo, counter-screen for streptokinase expression inhibitor project, dose response (AID 1915); type: functional, organism-based;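 also: potency for reduction of bacterial viability or growth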
[13] = system: Streptococcus sp. 'group A'; experiment: Streptococcus pyogenes SK(-)GAS viability under kanamycin – luminescence, BacTiterGlo, confirmation, counter-screen for streptokinase expression inhibitor project, dose response (AID 1900); type: functional, organism-based
[14] = molecular target: T2, Streptokinase A (Streptococcus pyogenes serotype M1, UniProt P10520); experiment: viability-normalized secreted streptokinase activity reduction – plasminogen activation absorbance, OD405, dose response (AID 1914); type: functional, Streptococcus pyogenes M1 GAS;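 also: secreted streptokinase activity via plasminogen activation per viability signal from cell pellet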
T2 sequence (P10520 whole entry): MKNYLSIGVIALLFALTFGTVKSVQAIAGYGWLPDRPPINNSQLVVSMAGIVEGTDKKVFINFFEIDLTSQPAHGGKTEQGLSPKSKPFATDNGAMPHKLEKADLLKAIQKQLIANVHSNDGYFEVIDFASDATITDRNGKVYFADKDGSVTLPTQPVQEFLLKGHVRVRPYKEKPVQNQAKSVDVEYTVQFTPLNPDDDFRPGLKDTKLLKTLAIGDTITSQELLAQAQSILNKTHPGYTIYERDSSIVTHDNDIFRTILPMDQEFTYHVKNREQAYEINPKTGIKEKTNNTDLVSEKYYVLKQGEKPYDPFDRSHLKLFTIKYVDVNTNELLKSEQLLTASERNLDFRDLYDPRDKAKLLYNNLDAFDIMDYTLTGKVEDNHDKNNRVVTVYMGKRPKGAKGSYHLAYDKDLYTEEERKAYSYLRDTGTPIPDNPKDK

[15] = molecular target: T3, Aminopeptidase N (Plasmodium falciparum FcB1/Columbia, UniProt O96935); experiment: malaria alanyl aminopeptidase activity blockers – biochemical, fluorogenic H-Leu-NHMec substrate, 1536-well (AID 1445); design: species or system Plasmodium falciparum 3D7, 3D7
T3 sequence (O96935 whole entry): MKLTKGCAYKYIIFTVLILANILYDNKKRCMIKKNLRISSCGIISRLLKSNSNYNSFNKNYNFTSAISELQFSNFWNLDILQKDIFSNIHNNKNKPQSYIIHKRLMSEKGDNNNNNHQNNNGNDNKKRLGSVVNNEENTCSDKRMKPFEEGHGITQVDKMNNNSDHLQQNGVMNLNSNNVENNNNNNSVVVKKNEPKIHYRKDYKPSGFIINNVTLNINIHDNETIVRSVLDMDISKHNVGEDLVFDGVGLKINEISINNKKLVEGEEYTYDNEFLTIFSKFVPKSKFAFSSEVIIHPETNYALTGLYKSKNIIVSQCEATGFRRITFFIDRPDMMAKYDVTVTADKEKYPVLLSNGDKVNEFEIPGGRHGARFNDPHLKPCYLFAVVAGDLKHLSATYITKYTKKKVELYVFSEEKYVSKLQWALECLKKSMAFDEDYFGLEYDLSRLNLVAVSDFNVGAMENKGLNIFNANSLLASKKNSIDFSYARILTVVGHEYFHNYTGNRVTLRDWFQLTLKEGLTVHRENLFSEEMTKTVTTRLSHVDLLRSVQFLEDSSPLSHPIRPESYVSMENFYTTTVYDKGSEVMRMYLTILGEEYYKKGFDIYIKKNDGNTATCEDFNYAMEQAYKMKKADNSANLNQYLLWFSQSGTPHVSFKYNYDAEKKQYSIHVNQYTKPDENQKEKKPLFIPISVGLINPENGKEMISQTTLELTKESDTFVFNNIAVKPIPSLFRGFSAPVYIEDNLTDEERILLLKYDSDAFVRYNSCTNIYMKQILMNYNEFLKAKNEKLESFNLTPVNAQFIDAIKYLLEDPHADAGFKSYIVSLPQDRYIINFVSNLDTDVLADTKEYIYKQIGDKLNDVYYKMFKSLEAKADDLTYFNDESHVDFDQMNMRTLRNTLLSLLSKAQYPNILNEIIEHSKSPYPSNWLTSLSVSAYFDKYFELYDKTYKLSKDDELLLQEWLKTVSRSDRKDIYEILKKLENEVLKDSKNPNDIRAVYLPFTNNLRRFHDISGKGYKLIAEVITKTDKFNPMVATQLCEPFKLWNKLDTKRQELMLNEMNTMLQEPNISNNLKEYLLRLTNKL

[16] = molecular target: Glyceraldehyde-3-phosphate dehydrogenase (Homo sapiens, UniProt P04406)
Chain of Glyceraldehyde-3-phosphate dehydrogenase (P04406 whole entry): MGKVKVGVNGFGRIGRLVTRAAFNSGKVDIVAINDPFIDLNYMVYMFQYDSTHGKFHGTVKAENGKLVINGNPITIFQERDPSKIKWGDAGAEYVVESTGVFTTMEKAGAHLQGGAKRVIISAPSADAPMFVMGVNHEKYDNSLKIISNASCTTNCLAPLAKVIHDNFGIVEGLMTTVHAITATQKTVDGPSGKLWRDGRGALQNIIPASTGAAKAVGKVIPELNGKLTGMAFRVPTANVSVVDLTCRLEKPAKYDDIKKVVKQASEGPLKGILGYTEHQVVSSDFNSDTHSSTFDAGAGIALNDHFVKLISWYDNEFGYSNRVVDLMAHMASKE

[17] = molecular target: T4, Protein RecA (Mycobacterium tuberculosis, UniProt P9WHJ3); experiment: Fluorescence Cell-Free Homogeneous Dose Retest to Identify Inhibitors of RecA-Intein Splicing Activity. [Related pubchem assays (depositor defined):AID2097, AID2223, AID489010, AID492950]; type: functional
T4 sequence (P9WHJ3 whole entry): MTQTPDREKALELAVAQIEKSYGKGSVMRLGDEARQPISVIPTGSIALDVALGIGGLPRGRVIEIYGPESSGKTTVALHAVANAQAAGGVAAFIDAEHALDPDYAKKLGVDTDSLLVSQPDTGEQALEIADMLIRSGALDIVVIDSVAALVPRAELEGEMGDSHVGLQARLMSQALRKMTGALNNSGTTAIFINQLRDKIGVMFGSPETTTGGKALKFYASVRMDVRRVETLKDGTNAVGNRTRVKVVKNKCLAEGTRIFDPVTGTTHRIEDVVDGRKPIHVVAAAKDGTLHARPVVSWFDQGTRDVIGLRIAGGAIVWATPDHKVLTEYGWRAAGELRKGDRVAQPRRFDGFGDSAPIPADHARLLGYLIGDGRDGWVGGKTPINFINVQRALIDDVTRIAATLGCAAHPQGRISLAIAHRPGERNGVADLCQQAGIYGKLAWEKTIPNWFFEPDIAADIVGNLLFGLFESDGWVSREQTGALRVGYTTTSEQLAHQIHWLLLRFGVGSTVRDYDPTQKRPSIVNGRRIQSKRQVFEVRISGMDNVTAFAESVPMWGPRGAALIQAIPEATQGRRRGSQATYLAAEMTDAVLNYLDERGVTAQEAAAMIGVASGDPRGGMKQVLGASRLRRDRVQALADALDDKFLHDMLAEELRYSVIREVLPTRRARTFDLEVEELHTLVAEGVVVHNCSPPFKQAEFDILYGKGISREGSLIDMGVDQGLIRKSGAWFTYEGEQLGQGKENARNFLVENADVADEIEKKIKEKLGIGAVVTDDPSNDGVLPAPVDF

[18] = molecular target: T5, Replicative DNA helicase DnaB (Mycobacterium tuberculosis, UniProt P9WMR3); experiment: DnaB intein splicing inhibitors, dose response, biochemical, cell-free fluorescence (AID 449749); type: functional
T5 sequence (P9WMR3 whole entry): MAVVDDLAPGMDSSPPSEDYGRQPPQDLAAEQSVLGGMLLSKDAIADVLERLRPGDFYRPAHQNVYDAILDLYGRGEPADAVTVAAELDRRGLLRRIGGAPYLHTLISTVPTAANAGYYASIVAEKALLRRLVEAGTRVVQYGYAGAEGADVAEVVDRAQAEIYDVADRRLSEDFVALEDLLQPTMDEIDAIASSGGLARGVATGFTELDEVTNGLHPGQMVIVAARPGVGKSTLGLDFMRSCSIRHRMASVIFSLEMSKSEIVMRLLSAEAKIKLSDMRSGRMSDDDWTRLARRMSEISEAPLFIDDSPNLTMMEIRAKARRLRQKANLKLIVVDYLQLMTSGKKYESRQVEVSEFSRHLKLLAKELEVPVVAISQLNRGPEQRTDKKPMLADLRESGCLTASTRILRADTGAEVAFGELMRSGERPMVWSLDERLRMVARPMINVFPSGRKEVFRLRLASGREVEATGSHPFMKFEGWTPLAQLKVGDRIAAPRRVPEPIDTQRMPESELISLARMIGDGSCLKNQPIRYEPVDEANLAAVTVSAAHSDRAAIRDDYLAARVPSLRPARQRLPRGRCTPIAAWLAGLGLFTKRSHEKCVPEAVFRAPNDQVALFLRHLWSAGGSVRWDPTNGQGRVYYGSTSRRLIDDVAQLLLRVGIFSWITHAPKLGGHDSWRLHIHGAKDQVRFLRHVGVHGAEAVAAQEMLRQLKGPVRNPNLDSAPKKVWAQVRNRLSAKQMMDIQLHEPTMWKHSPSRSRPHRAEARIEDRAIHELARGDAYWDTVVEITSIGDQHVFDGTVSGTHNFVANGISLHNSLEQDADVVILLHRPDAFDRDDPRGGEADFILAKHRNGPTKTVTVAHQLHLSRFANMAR

[19] = HEK-293T cell viability reduction – luminescence, B-cell screen hits, cytotoxicity control for BCR NF-kB inhibitor project, dose response (AID 489021); type: functional, cell-based;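 also: HEK-293T cells carrying an NF-kB luciferase reporter; cells exposed to compound for about 14 hours before viability readout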

Chain of Cytochrome P450 2D6 (P10635 whole entry): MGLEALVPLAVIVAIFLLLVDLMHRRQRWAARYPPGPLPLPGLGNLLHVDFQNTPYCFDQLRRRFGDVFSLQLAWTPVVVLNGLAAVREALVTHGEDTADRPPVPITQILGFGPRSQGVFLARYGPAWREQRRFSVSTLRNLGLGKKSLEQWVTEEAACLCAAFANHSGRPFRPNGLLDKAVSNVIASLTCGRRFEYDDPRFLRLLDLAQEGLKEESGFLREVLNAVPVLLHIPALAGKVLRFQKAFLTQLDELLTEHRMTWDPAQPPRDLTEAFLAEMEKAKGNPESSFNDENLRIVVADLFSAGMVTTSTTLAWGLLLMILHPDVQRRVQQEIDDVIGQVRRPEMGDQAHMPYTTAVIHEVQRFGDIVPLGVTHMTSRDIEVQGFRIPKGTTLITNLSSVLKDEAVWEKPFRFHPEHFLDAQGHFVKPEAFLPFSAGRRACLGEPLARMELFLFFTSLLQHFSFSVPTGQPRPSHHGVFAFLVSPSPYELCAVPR

For `Cc1cccc(NC(S)=NNC(=O)c2csc3c2CCCC3)c1`, the AC50 [1] was 25.1 µM (inconclusive), the IC50 [2] was 11.2 µM (active) and the AC50 [3] was “inconclusive”. The IC50 [4] was 13.2 µM (active).
With `C=C1C(=O)[C@@]23[C@H](O)C[C@@H]4C(C)(C)CC[C@H](O)[C@@]4(C)[C@@H]2CC[C@@H]1[C@H]3O` [KAMEBANIN] the EC50 [5] was 1.17 µM (active), the CC50 [6] was 5.73 µM (active) and the EC50 [7] was 1.02 µM (active). For the same compound, the AC50 [8] was 1.16 µM (active), the AC50 [9] was 26.3 µM (active) and the AC50 [10] was 1.29 µM (active). For the same compound, the AC50 [11] was 4.85 µM (active).
With `NS(=O)(=O)c1ccc(N2N=C(c3ccccc3)CC2c2ccc(F)cc2)cc1` (stereo not given) the EC50 [12] was 18.7 µM (active), the EC50 [13] was 6.96 µM (active) and the EC50 [14] was 55.2 µM (active). The IC50 [15] was 62 µM (active).
For `O=C(O)Cc1ccc(/C(=N\O)c2cccs2)s1`, the IC50 [16] was > 100 µM (not active).
For `CC(C)(C)c1ccc(C(=O)C2CCCN(C(=O)c3ccccn3)C2)cc1` (stereo not given), the IC50 [2] was 15.1 µM (active) and the IC50 [4] was 11.5 µM (active).
For `Cc1ccccc1C1C2=C(O)c3ccccc3C2=Nc2nn(-c3ccccc3)c(O)c21` (stereo not given), the IC50 [15] was 40.4 µM (active).
With `COC(=O)N/N=C/c1cn(CCCOc2ccc(C)cc2)c2ccccc12` the IC50 [2] was 10.3 µM (active) and the IC50 [4] was 7.39 µM (active).
In the case of `Cc1ccc(-c2[nH]nc3c2C(c2ccc(OC(=O)N4CCOCC4)cc2)C(C#N)=C(N)O3)cc1` (stereo not given), the EC50 [17] is reported as 1.18 µM (active), the IC50 [2] is reported as 15.8 µM (active) and the AC50 [18] is reported as 4.61 µM (active). For the same compound, the IC50 [4] was 11.7 µM (active).
For `CCCc1nc2sc3c(c2c(=O)n1NC(=O)c1ccco1)CC(C)(C)OC3`, the IC50 [15] was 36.1 µM (active).
With `O=C(c1ccc(-n2c(SCc3cccc(F)c3)nc3ccccc3c2=O)cc1)N1CCOCC1` the IC50 [2] was 10.1 µM (active) and the IC50 [4] was 8.49 µM (active).
In the case of `O=C(COc1ccccc1/C=C\c1nc(O)c([N+](=O)[O-])c(O)n1)Nc1ccccc1`, the IC50 [15] is reported as 49 µM (active).
For `O=C(N/N=C/c1cccnc1)c1cc(-c2ccccc2OCc2ccccc2)[nH]n1`, the IC50 [19] was 53.1 µM (inactive) and the IC50 [15] was 31.2 µM (active).
With `O=C1OC[C@H](Cc2ccc3c(c2)OCO3)/C1=C\c1ccc2c(c1)OCO2` [SAVININ] the AC50 [9] was 59.8 µM (active), the AC50 [10] was 2.66 µM (active) and the AC50 [11] was 23.1 µM (active).
For `NC(c1csc(NC(=O)Nc2cccc(C(F)(F)F)c2)n1)C1CCCCC1` (stereo not given), the AC50 [9] was 11.3 µM (active), the AC50 [10] was 4.81 µM (active) and the AC50 [11] was 7.42 µM (active).
In the case of `Cc1ccc(NC(=O)CSc2nn(-c3ccccc3)c(=S)s2)cc1S(=O)(=O)N(C)C`, the AC50 [9] is reported as 45.6 µM (active), the AC50 [10] is reported as 5.82 µM (active) and the AC50 [11] is reported as 55.6 µM (active).
